{"source": "patent US11274115B2", "about": "“Imidazoquinoline derivatives and their use in therapy” (GLAXOSMITHKLINE BIOLOGICALS SA, priority 2016, dated 2022)", "type_in_all_cases": "cell-based", "key": {"human TLR8": {"biological_target": "T1, human TLR8 (Homo sapiens, UniProt Q9NR97)", "T1 construct": "host or cells: HEK293", "T1 sequence (Q9NR97 27-1041)": "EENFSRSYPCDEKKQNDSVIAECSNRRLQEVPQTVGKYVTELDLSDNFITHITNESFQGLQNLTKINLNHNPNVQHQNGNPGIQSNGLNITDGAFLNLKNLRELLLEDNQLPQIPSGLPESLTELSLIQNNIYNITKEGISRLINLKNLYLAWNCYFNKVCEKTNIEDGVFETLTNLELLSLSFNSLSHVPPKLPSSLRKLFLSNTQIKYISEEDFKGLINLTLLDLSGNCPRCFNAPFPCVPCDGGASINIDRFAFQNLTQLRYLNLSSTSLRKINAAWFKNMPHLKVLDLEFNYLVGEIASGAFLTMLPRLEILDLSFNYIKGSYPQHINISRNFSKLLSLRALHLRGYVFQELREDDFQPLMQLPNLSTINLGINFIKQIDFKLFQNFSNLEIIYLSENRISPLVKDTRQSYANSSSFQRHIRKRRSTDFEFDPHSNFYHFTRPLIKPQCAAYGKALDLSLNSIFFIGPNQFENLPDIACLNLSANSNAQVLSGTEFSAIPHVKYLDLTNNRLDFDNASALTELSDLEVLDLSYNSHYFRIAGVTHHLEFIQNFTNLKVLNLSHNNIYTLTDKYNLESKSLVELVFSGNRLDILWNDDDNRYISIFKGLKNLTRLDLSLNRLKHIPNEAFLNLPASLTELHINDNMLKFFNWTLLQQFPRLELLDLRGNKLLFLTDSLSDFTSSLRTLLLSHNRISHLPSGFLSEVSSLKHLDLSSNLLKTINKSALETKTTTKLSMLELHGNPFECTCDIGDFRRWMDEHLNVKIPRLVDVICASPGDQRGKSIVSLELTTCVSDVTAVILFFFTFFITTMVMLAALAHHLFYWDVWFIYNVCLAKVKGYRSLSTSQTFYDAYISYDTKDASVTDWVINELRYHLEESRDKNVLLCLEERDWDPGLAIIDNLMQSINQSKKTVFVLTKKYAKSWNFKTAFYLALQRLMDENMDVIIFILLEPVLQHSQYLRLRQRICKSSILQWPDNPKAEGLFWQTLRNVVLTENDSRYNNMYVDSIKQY", "experiment": "hTLR8 agonist reporter assay in HEK293 cells (NFκB-SEAP)", "experimental": "(§1) Assay for hTLR7 and hTLR8 Agonist Activity in HEK-293 Cells\n(§2) Determination of TLR agonist activity was performed using the HEK293 […]. This assay measures TLR7 and TLR8 selectivity and potency of the compounds tested. HEK293 cells expressing human TLR7 or TLR8 and NFκB responsive Secreted Embryonic Alkaline Phosphatase (SEAP) reporter gene were obtained from InvivoGen (San Diego, Calif.). These cells were maintained in culture media of Dulbecco's Modified Eagle Medium (DMEM) (Invitrogen, Grand Island, N.Y.), 10% Fetal Bovine Serum (FBS) (Sigma, St. Louis, Mo.) and selection antibiotics (Invitrogen, and Invivogen). HEK293 stably transfected with human TLR7 (hTLR7) or human TLR8 (hTLR8) were stimulated for 24 h with aqueous formulations of test compounds and culture supernatants were analyzed for NFκB activation using the colorimetric SEAP detection kit QuantBlue (InvivoGen)."}, "[1]": {"test_system": "human peripheral blood mononuclear cells (hPBMCs)", "experiment": "TNF-α induction in hPBMCs", "details": "24 h, FIG. 13", "experimental": "(§3) Assays to Measure Cytokine Induction\n(§4) Test compounds were evaluated for cytokine induction in human peripheral blood mononuclear cells (hPBMCs).\n(§5) Primary human PBMCs were isolated from fresh blood from healthy donors via Ficoll gradient separation and plated at 0.5×10^6 cells/well in 96-well tissue culture plates (RPMI-1640 plus 10% FBS). hPBMCs were maintained with RPMI-1640 culture media (Invitrogen, Grand Island, N.Y.), antibiotics (Invitrogen) and 10% FBS (Sigma).\n(§6) Incubation and Assays for IFN-γ, IFN-α and TNF-α\n(§7) hPBMCs were stimulated for 24 h with aqueous formulations of test compounds. Culture supernatants were analyzed for TNF-α and IFN-γ induction using multiplex kits (FluoroKine multiplex kits from R&D Systems, Minneapolis, Minn.) and for IFN-α induction using human IFN-α VeriKine ELISA kit (Pestka Biomedical Laboratories, Inc., Piscataway, N.J.)."}, "human TLR7": {"biological_target": "T2, human TLR7 (Homo sapiens, UniProt Q9NYK1)", "T2 construct": "host or cells: HEK293", "T2 sequence (Q9NYK1 27-1049)": "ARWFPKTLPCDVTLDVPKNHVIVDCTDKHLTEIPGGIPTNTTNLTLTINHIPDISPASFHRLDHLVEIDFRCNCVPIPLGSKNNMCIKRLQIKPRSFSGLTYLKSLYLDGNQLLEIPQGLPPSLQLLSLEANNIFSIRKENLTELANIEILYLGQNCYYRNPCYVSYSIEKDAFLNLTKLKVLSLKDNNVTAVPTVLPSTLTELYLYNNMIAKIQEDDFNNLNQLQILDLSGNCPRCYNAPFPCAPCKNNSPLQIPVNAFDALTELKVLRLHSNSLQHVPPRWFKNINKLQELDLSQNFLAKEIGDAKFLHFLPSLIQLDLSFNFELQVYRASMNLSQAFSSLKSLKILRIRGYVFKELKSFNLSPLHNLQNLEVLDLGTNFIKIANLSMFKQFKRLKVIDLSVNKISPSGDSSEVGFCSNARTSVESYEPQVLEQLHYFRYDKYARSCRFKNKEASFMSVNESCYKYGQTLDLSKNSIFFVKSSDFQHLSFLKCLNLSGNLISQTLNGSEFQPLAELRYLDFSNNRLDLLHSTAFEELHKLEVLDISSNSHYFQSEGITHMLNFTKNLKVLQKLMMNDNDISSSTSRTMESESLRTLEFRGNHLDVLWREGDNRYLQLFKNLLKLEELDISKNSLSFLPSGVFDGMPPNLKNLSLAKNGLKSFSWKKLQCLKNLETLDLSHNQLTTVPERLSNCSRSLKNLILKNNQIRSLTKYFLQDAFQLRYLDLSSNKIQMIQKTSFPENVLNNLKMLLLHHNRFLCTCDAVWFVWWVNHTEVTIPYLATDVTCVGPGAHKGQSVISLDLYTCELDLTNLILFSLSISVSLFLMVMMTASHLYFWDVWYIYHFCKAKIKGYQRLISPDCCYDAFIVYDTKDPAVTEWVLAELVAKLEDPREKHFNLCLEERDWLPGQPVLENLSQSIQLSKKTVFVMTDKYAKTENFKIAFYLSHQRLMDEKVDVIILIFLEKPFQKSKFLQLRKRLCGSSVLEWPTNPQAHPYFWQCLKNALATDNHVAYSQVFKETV", "experiment": "hTLR7 agonist reporter assay in HEK293 cells (NFκB-SEAP)", "experimental": "as §1, §2"}, "[2]": {"test_system": "human peripheral blood mononuclear cells (hPBMCs)", "experiment": "IFN-α induction in hPBMCs", "details": "24 h, FIG. 12, another occasion", "experimental": "as §3, §4, §5, §6, §7"}, "[3]": {"test_system": "human peripheral blood mononuclear cells (hPBMCs)", "experiment": "IFN-γ induction in hPBMCs", "details": "24 h, FIG. 11, another occasion", "experimental": "as §3, §4, §5, §6, §7"}}, "data": [{"smiles": "CCCCCCCC/C=C\\CCCCCCCC(=O)OC[C@@H](O)COP(=O)(O)OCCOc1ccc2c(c1)nc(N)c1nc(CCCC)n(CCO)c12", "note": "[Example 3]", "values": [{"measurement": "EC50", "setting": "human TLR8; Table 2, FIG. 4, another occasion, * = only very low levels of NFKB activation were detected, read-out: hTLR8 ED50", "result": 2.8, "unit": "µM"}, {"measurement": "hTLR8 agonist activity, in words", "setting": "human TLR8; text on Table 2, FIG. 4", "result": "potent agonist of hTLR7 and hTLR8"}, {"measurement": "TNF-α induction, in words", "setting": "[1]", "result": "potent at inducing TNF-α"}, {"measurement": "relative potency hTLR7 versus hTLR8, in words", "setting": "human TLR7; Table 2", "result": "approximately equally potent at both receptors"}, {"measurement": "EC50", "setting": "human TLR7; Table 2, FIG. 3, another occasion, * = only very low levels of NFKB activation were detected, read-out: hTLR7 ED50", "result": 3.4, "unit": "µM"}, {"measurement": "hTLR7/8 ratio", "setting": "human TLR7; Table 2, hTLR7 ED50 over hTLR8 ED50", "result": 1.2}, {"measurement": "hTLR7 agonist activity, in words", "setting": "human TLR7; text on Table 2, FIG. 3", "result": "potent agonist of hTLR7 and hTLR8"}, {"measurement": "IFN-α induction, in words", "setting": "[2]", "result": "more potent at inducing IFN-α than Comparative Examples 1, 2 and 3"}, {"measurement": "IFN-γ induction, in words", "setting": "[3]", "result": "potent at inducing IFN-γ and each was more potent than Comparative Example 3"}]}]}
